Results taken from ChEMBL document CHEMBL4130413, “1-Aryl-1H- and 2-aryl-2H-1,2,3-triazole derivatives blockade P2X7 receptor in vitro and inflammatory response in vivo” (Eur J Med Chem, 2017).
Active and inactive are the calls of the source. The calls are words filed in the database; no cut-off is given here.

What was measured:
[1] = molecular target: T1, P2X purinoceptor 7 (Mus musculus) (UniProt Q9Z1M0); test: (§1) Antagonist activity at P2X7 receptor in Swiss mouse peritoneal macrophages assessed as inhibition of ATP-induced propidium iodide uptake after 25 mins by flow cytometric analysis
T1 sequence (whole entry): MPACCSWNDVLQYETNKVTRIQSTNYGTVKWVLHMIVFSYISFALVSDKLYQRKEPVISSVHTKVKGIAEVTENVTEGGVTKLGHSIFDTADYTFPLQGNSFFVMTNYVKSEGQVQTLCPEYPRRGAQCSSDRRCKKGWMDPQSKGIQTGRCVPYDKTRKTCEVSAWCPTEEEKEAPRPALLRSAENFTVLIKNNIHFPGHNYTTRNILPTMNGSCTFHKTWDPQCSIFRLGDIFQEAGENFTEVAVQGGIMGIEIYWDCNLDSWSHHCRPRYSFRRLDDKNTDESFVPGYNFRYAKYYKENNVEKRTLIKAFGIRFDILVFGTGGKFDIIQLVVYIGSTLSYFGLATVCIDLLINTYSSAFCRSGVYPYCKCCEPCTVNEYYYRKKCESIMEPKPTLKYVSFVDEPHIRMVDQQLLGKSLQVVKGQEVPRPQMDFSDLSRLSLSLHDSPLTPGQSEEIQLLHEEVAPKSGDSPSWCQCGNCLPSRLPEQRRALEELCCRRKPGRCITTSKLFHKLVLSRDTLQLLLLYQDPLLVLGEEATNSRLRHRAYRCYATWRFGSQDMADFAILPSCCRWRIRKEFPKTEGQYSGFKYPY

P2X purinoceptor 7 [2] = molecular target: T2, P2X purinoceptor 7 (Mus musculus, UniProt Q9Z1M0); test: as §1
T2 sequence (Q9Z1M0 whole entry): T1 sequence (whole entry)

P2X purinoceptor 7 [3] = molecular target: T2, P2X purinoceptor 7; test: Antagonist activity at P2X7 receptor in Swiss mouse peritoneal macrophages assessed as inhibition of ATP-induced current at holding potential of -60 mV preincubated for 5 mins followed by ATP addition measured after 5 mins by Whole cell patch-clamp analysis
P2X purinoceptor 7 [4] = molecular target: T3, P2X purinoceptor 7 (Homo sapiens, UniProt Q99572); test: Antagonist activity at human P2X7 receptor expressed in HEK293 cells assessed as inhibition of ATP-induced ethidium iodide uptake preincubated for 10 mins followed by ATP addition measured after 20 mins by spectrofluorometric analysis; format: cell-based
T3 sequence (Q99572 whole entry): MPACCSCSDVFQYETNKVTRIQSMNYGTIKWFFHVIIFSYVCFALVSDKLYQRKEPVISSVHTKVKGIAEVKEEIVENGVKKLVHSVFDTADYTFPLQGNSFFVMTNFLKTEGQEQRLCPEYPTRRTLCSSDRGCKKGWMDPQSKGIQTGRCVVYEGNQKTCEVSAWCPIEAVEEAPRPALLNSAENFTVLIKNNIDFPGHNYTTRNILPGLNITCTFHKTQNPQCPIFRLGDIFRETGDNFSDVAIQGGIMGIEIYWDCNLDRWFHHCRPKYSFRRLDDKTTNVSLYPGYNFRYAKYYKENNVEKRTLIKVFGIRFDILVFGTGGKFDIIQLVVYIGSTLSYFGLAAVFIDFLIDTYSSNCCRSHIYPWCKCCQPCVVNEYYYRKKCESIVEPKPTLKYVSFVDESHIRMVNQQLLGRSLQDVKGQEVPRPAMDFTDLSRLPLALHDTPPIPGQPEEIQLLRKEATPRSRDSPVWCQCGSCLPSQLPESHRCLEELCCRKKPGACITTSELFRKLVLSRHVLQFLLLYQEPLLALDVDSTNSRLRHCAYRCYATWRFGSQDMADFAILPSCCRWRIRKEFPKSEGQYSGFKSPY

P2X purinoceptor 7 [5] = molecular target: T2, P2X purinoceptor 7; test: Antagonist activity at P2X7 receptor in Swiss mouse peritoneal macrophages assessed as inhibition of BzATP-induced ethidium iodide uptake after 30 mins by spectrofluorometric analysis
P2X purinoceptor 7 [6] = molecular target: T2, P2X purinoceptor 7; test: Antagonist activity at P2X7 receptor in Swiss mouse peritoneal macrophages assessed as inhibition of BzATP-induced current at holding potential of -60 mV preincubated for 5 mins followed by BzATP addition measured after 5 mins by Whole cell patch-clamp analysis
Peritoneal macrophage [7] = test: Toxicity in Swiss mouse peritoneal macrophages assessed as LDH release at 750 nM after 60 mins relative to 0.05% Triton X-100; format: cell-based; conditions: 1 h, 0.75 µM
[8] = molecular target: T4, P2X purinoceptor 7 (Homo sapiens) (UniProt Q99572); test: Antagonist activity at human P2X7 receptor expressed in HEK293 cells assessed as inhibition of ATP-induced ethidium iodide uptake at 750 nM preincubated for 10 mins followed by ATP addition measured after 20 mins by FLIPR assay relative to 1 mM ATP; format: cell-based
T4 sequence (whole entry): T3 sequence (Q99572 whole entry)

[9] = molecular target: P2X purinoceptor 7 (Mus musculus) (UniProt Q9Z1M0); test: Antagonist activity at P2X7 receptor in Swiss mouse peritoneal macrophages assessed as inhibition of ATP-induced propidium iodide uptake at 750 nM after 30 mins by FLIPR assay relative to 1 mM ATP
P2X purinoceptor 7 [10] = molecular target: T3, P2X purinoceptor 7; test: Antagonist activity at human P2X7 receptor expressed in human 1321N1 cells assessed as reduction in agonist-induced intracellular Ca2+ levels preincubated for 3 mins followed by agonist addition measured up to 2 mins by Fluo-4 dye-based FLIPR assay; format: cell-based
P2X purinoceptor 7 [11] = molecular target: P2X purinoceptor 7 (Rattus norvegicus, UniProt Q64663); test: Antagonist activity at rat P2X7 receptor expressed in human 1321N1 cells assessed as reduction in agonist-induced intracellular Ca2+ levels preincubated for 3 mins followed by agonist addition measured up to 2 mins by Fluo-4 dye-based FLIPR assay; format: cell-based
Sequence of P2X purinoceptor 7 (Rattus norvegicus, UniProt Q64663) (Q64663 whole entry): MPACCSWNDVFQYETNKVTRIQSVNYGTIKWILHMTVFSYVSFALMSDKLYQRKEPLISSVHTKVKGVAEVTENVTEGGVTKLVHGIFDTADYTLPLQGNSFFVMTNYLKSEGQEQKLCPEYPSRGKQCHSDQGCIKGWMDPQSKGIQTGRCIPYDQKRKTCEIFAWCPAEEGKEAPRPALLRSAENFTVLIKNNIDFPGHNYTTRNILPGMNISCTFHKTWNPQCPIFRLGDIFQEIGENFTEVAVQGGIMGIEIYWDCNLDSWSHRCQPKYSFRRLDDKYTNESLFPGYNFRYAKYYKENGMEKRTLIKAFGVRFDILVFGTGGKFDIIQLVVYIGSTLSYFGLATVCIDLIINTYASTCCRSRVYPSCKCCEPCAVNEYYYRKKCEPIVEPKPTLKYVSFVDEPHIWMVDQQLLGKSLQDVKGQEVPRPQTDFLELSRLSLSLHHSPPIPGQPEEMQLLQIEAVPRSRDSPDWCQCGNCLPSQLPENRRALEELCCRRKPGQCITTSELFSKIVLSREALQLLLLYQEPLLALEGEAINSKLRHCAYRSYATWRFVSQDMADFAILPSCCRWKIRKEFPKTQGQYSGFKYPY

P2X purinoceptor 7 [12] = molecular target: T2, P2X purinoceptor 7; test: Antagonist activity at mouse P2X7 receptor expressed in human 1321N1 cells assessed as reduction in agonist-induced intracellular Ca2+ levels preincubated for 3 mins followed by agonist addition measured up to 2 mins by Fluo-4 dye-based FLIPR assay; format: cell-based
P2X purinoceptor 7 [13] = molecular target: T3, P2X purinoceptor 7; test: Antagonist activity at human P2X7 receptor expressed in human THP1 cells assessed as reduction in BzATP-induced pore formation by measuring YO-PRO uptake by FLIPR assay; format: cell-based
P2X purinoceptor 7 [14] = molecular target: T3, P2X purinoceptor 7; test: Antagonist activity at human P2X7 receptor expressed in human THP1 cells assessed as reduction in BzATP-induced IL-1beta levels preincubated for 30 mins followed by BzATP addition measured after 30 mins by ELISA; format: cell-based
Mus musculus [15] = test: Anti-inflammatory activity in ip dosed Swiss Webster mouse assessed as inhibition of ATP-induced paw edema pretreated for 60 mins followed by ATP administration and measured after 30 mins; format: functional
Mus musculus [16] = test: Anti-inflammatory activity in ip dosed Swiss Webster mouse assessed as inhibition of carrageenan-induced paw edema pretreated for 60 mins followed by carrageenan administration and measured after 30 mins; format: functional
Mus musculus [17] = test: Anti-inflammatory activity in po dosed Swiss Webster mouse assessed as inhibition of ATP-induced paw edema pretreated for 60 mins followed by ATP administration and measured after 30 mins; format: functional
Mus musculus [18] = test: Anti-inflammatory activity in po dosed Swiss Webster mouse assessed as inhibition of carrageenan-induced paw edema pretreated for 60 mins followed by carrageenan administration and measured after 60 mins; format: functional
P2X purinoceptor 7 [19] = molecular target: T3, P2X purinoceptor 7; test: Antagonist activity at human P2X7 receptor in PMA-differentiated THP-1 macrophages assessed as inhibition of ATP-induced IL-1beta release preincubated for 30 mins followed by ATP addition measured after 30 mins by ELISA
P2X purinoceptor 7 [20] = molecular target: T2, P2X purinoceptor 7; test: Antagonist activity at P2X7 receptor in LPS/IFNc-differentiated Swiss mouse peritoneal macrophages assessed as inhibition of ATP-induced IL-1beta release preincubated for 30 mins followed by LPS stimulation for 4 hrs using cells treated with ATP for 30 mins by ELISA
Peritoneal macrophage [21] = test: Toxicity in Swiss mouse peritoneal macrophages assessed as LDH release at 10 uM after 60 mins relative to 0.05% Triton X-100; format: cell-based; conditions: 1 h
[22] = molecular target: T4, P2X purinoceptor 7 (Homo sapiens); test: Antagonist activity at human P2X7 receptor expressed in HEK293 cells assessed as inhibition of ATP-induced ethidium iodide uptake at 10 uM preincubated for 10 mins followed by ATP addition measured after 20 mins by FLIPR assay relative to 1 mM ATP; format: cell-based
[23] = Cytotoxicity against Swiss mouse peritoneal macrophages after 24 hrs by LDH-release assay; format: cell-based, Peritoneal macrophage
[24] = molecular target: T1, P2X purinoceptor 7 (Mus musculus); test: Antagonist activity at mouse P2X7 receptor expressed in HEK293 cells assessed as inhibition of ATP-induced ethidium iodide uptake at 10 uM preincubated for 10 mins followed by ATP addition measured after 20 mins by FLIPR assay relative to 1 mM ATP; format: cell-based
[25] = molecular target: P2X purinoceptor 7 (Mus musculus) (UniProt Q9Z1M0); test: Antagonist activity at P2X7 receptor in Swiss mouse peritoneal macrophages assessed as inhibition of ATP-induced propidium iodide uptake at 10 uM after 30 mins by FLIPR assay relative to 1 mM ATP

CCOc1ccc(Nc2ccc(/C(=C3C=C/C(=[N+](/CC)Cc4cccc(S(=O)(=O)[O-])c4)C=C/3C)c3ccc(N(CC)Cc4cccc(S(=O)(=O)[O-])c4)cc3C)cc2)cc1.[Na+] [BRILLIANT BLUE G]
inhibition [1]: Dose-dependent effect | IC50 (P2X purinoceptor 7 [2]): 343 nM | IC50 (P2X purinoceptor 7 [3]): 109 nM | IC50 (P2X purinoceptor 7 [4]): 552 nM | IC50 (P2X purinoceptor 7 [5]): 432 nM | IC50 (P2X purinoceptor 7 [6]): 407 nM | Activity (Peritoneal macrophage [7]): 13.22% | inhibition [8]: 90.1% | inhibition [9]: 78.9%

Clc1cccc(-n2nnnc2NCc2ccccc2Oc2ccccn2)c1Cl
IC50 (P2X purinoceptor 7 [10]): 20 to 150 nM | IC50 (P2X purinoceptor 7 [11]): 20 to 150 nM | IC50 (P2X purinoceptor 7 [12]): 20 to 150 nM | IC50 (P2X purinoceptor 7 [13]): 6.61 nM | IC50 (P2X purinoceptor 7 [14]): 37.2 nM

COc1ccc(CC(=O)NC(N/C(=N/C#N)Nc2cccc3ncccc23)C(C)(C)C)cc1OC (configuration not stated)
IC50 (P2X purinoceptor 7 [4]): 86 nM | IC50 (P2X purinoceptor 7 [5]): 63.3 nM | IC50 (P2X purinoceptor 7 [6]): 46.9 nM | ID50 (Mus musculus [15]): 0.1058 µg/kg | ID50 (Mus musculus [16]): 0.1423 µg/kg | ID50 (Mus musculus [17]): 0.1097 µg/kg | ID50 (Mus musculus [18]): 0.119 µg/kg | IC50 (P2X purinoceptor 7 [19]): 82 nM | IC50 (P2X purinoceptor 7 [20]): 112 nM

O=Cc1cn(-c2ccccc2)nn1
Activity (Peritoneal macrophage [21]): 10.51% | inhibition [22]: 95.3% | inhibition [1]: Dose-dependent effect | IC50 (P2X purinoceptor 7 [2]): 167 nM | IC50 (P2X purinoceptor 7 [3]): 103 nM | CC50 at 24 h [23]: 3740 nM | IC50 (P2X purinoceptor 7 [4]): 478 nM | inhibition [24]: Active | inhibition [25]: 84.6%
